{"source": "patent US7176293B1", "about": "“Compositions and methods to enhance sensitivity of cancer cells to mitotic stress” (The Wistar Institute of Anatomy and Biology, priority 1999, dated 2007)", "key": {"[1]": {"system": "DLD1 cells", "assay": "Centrosome staining of synchronized DLD1-neo and DLD1-chfr cells", "format": "cell-based, human", "conditions": "nocodazole added 12 hours after aphidicolin release, 14 hour time point", "description": "Cells were grown on 8-well culture slides coated with human fibronectin (Becton Dickinson) and were examined as either non-synchronized or synchronized cells. The cells were prepared for microscopy by washing them three times with KM buffer (10 mM MES, pH 6.2, 10 mM NaCl, 1.5 mM MgCl2, 2.5% glycerol), fixing with 1% paraformaldehyde in 0.5×KM buffer for 15 minutes, washing once with 0.2% Triton X-100 in phosphate buffer saline (PBS) for 20 minutes and three times with PBS. For centrosome staining, the cells were incubated for 1 hour with a 1:500 dilution of autoimmune serum Ab598 in PBS, washed three times with PBS, incubated with a Texas Red-conjugated anti-human secondary antibody (Vector Labs) diluted 1:200 in PBS and washed again three times with PBS. For DNA staining, the cells were incubated with DAP1 ([…] in PBS). The slides were sealed with coverslips using Fluoromount-G (Upstate Biotechnology) and visualized with a fluorescence microscope (Leica). Separate images, acquired using filters corresponding to the excitation maxima of DAP1 and Texas Red, were merged with IRIX image tools (Silicon Graphics).\nTo correlate the timing of the Chfr effect with progress through the cell cycle, synchronized cells were stained with DAP1 to monitor chromosome condensation and with an antibody that recognizes the centrosomes. […]"}, "[2]": {"system": "cyclin B/cdc2", "assay": "Cdc2 kinase activity in synchronized DLD1 cells", "format": "cell-based, human", "conditions": "synchronized DLD1-neo and DLD1-chfr cells treated 12 hours after release from the G1-S block", "description": "Whole cell extracts, prepared as described above, were incubated with anti-cyclin B antibody (Santa Cruz) coupled to protein G beads (Pharmacia) in CL buffer for 1 hour. The beads were washed three times with CL buffer and then twice with cdc2 kinase (CK) buffer (50 mM HEPES, pH 7.0, 10 mM MgCl2, 10 mM MnCl2, 200 mM NaCl). The beads were then incubated with 1 μg histone H1 (Upstate Biotechnology) in CK buffer supplemented with 30 mM DTT, 0.06 μM ATP and 1 μCi ^32P-γ-ATP for 20 minutes at 30° C., at which time the reactions were subjected to denaturing gel electrophoresis. Phosphorylation of histone H1 was detected by autoradiography."}, "[3]": {"system": "DLD1 cells", "assay": "Long term response to mitotic stress (colony formation)", "format": "cell-based, human", "conditions": "4 hour exposure 12 hours after release, colonies over three weeks", "description": "Cells synchronized by a sequential thymidine-aphidicolin block were either not exposed to mitotic stress or exposed to 0.5 μg/ml nocodazole or the TAXOL™ drug for a 4 hour period starting 12 hours after aphidicolin release or release from the G1-S block. The short term response to mitotic stress was evaluated by examining the cell cycle profile at the time of nocodazole removal, 24 or 48 hours later. At the indicated time points, the cells were recovered from the tissue culture plates with trypsin, fixed in 70% ethanol for 10 minutes and incubated with propidium iodide and DNase-free RNase (Roche) in PBS containing 1% fetal bovine serum and 2% Tween-20. The nuclear morphology of the cells was visualized by fluorescence microscopy. The DNA content of the cell population was determined by flow cytometry.\nTo evaluate the long term response of the cells to survive exposure to mitotic stress, at the time of nocodazole removal, the cells were replated at a density of 200 cells per 100 mm diameter tissue culture dish. The cells were allowed to replicate and colonies were counted 3 weeks later.\nTo the long term response of the cells to survive exposure to mitotic stress, synchronized DLD1-neo and DLD1-chfr cells were transiently exposed to nocodazole or the TAXOL™ drug, as described above (e.g., exposed to nocodazole or the TAXOL™ drug 12 hours after release from the G1-S block for a 4 hour period). At the time of nocodazole removal, the cells were replated at a density of 200 cells per 100 mm diameter tissue culture dish and then allowed to form colonies over a three-week period."}, "[4]": {"system": "eight human cancer cell lines (SW480, DLD1, HT29, HCT116, SAOS2, U20S, IMR5 and NGP)", "assay": "Mitotic index of unsynchronized human cancer cell lines treated with nocodazole", "format": "cell-based", "conditions": "16 hours after nocodazole", "description": "All cancer cells were grown in DMEM supplemented with glutamine, penicillin, streptomycin and 10% fetal bovine serum (Life Sciences). Normal human epidermal keratinocytes and osteoblasts were grown in KGM2 and OGM media, respectively (Clonetics). The cells were examined either non-synchronized or synchronized. For synchronization, the cells were treated with 2 mM thymidine for 16 hours, then with 0.25 mM thymidine/deoxycytidine for 9 hours, and then with 0.5 μg/ml aphidicolin for 20–24 hours. The cells were washed three times with PBS between each step [Janss et al., 1998, Exp. Cell Res., 243:29–38]. To induce mitotic stress, synchronized or non-synchronized cells were exposed to 0.5 μg/ml nocodazole, 5 μM of the TAXOL™ drug or 0.5 μg/ml colcemid. Cells were grown on 8-well culture slides coated with human fibronectin (Becton Dickinson) and were examined as either non-synchronized or synchronized cells. […] The slides were sealed with coverslips using Fluoromount-G (Upstate Biotechnology) and visualized with a fluorescence microscope (Leica). […] The cells were scored for Mitotic Index. […]"}, "[5]": {"molecular_target": "T1, Chfr (Homo sapiens, UniProt Q96EP1)", "T1 construct": "Reactions were performed with full-length Chfr fused to GST; made in house; host or cells: E. coli (crude bacterial lysates)", "T1 sequence (Q96EP1 1-664)": "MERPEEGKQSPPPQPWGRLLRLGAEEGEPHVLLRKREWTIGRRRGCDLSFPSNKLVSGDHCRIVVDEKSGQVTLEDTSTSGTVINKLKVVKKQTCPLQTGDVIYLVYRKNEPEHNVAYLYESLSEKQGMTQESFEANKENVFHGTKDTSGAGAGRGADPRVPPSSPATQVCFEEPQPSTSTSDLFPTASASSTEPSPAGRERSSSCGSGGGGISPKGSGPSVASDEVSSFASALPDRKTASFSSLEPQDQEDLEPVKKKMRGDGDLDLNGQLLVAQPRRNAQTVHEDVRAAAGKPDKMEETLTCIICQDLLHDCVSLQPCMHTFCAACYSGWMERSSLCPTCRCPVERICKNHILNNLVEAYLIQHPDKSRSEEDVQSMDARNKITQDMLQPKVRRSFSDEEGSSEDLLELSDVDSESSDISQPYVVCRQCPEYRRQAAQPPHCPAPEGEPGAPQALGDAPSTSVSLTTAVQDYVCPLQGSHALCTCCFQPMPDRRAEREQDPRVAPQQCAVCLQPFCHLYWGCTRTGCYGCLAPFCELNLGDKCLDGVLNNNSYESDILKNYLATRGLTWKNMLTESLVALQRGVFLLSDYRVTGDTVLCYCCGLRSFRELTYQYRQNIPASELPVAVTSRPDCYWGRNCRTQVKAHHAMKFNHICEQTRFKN", "assay": "Ubiquitin-protein ligase assay in vitro", "format": "biochemical", "conditions": "crude bacterial lysates with E1, GST-Chfr, ubiquitin and ATP", "description": "Recombinant E. coli bacterial cells that have been genetically engineered to express the E1 ubiquitin-activating enzyme and the E2 ubiquitin-conjugating enzyme (either UbchD2 or Ubch8) and a […] comprised of glutathione S-transferase fused to the N-terminus of Chfr were lysed. The lysates were incubated in the presence of ubiquitin and ATP and the reaction allowed to proceed for 20 minutes at 30° C. GST-Chfr was captured on glutathione beads, eluted with SDS sample buffer, and resolved by SDS-PAGE. The SDS gel was immunoblotted with antibodies that recognize ubiquitin. Reactions were performed with full-length Chfr fused to GST and reactions were performed with Chfr lacking amino acid residues 1–280 of SEQ ID NO: 2, which contain the FHA domain."}}, "data": [{"compound": "COC(=O)Nc1nc2ccc(C(=O)c3cccs3)cc2[nH]1", "note": "[nocodazole]", "values": [{"measurement": "centrosome separation", "setting": "[1]", "value": "inhibited"}, {"measurement": "Cyclin B/cdc2 activity", "setting": "[2]", "value": "high"}, {"measurement": "number of colony-forming units (CFUs)", "setting": "[3]; DLD1-chfr cells", "value": "unaffected"}, {"measurement": "number of colony-forming units (CFUs)", "setting": "[3]; DLD1-neo cells", "value": "decrease"}, {"measurement": "mitotic index (fraction of cells that had condensed chromosomes)", "setting": "[4]; cell lines that expressed wild-type Chfr", "value": "low"}, {"measurement": "mitotic index (fraction of cells that had condensed chromosomes)", "setting": "[4]; cell lines with no detectable Chfr expression and U20S cells (variant chfr)", "value": "high"}]}, {"compound": "CC(=O)O[C@H]1C(=O)[C@@]2(C)[C@H]([C@H](OC(=O)c3ccccc3)[C@]3(O)C[C@H](OC(=O)[C@H](O)[C@@H](NC(=O)c4ccccc4)c4ccccc4)C(C)=C1C3(C)C)[C@]1(OC(C)=O)CO[C@@H]1C[C@@H]2O", "note": "[TAXOL™ drug]", "values": [{"measurement": "number of colony-forming units (CFUs)", "setting": "[3]; DLD1-chfr cells", "value": "unaffected"}, {"measurement": "number of colony-forming units (CFUs)", "setting": "[3]; DLD1-neo cells", "value": "decrease"}]}, {"compound": "Ubch8: E2 ubiquitin-conjugating enzyme", "values": [{"measurement": "ability of the E2 ubiquitin-conjugating enzyme to support ligase activity of Chfr", "setting": "[5]", "value": "did not function in this assay"}]}]}
